Source: publication PMC8703611, “Cyclic Peptides from the Soft Coral-Derived Fungus Aspergillus sclerotiorum SCSIO 41031” (Marine Drugs, 2021)

Legend:
[1] = Cytotoxicity against HONE1-EBV, CCK-8 method; format: cell-based, human; conditions: CCK-8, OD at 450 nm, 72 h, average values of three parallel experiments
Method: (§1) The THP-1, HONE1, and HONE1-EBV cell lines were obtained from Sun Yat-sen University Cancer Center. The cytotoxic activity was determined by the CCK-8 (Dojindo) method. Briefly, THP-1, HONE1, and HONE1-EBV cells were cultured in DMEM media supplemented with 10% […] (FBS), respectively. The cells were seeded at a density of 400 to 800 cells/well in 384-well plates and then incubated with the compounds in a gradient concentration (50.0, 10.0, 2.0, 0.4, and 0.08 μM) or with a solvent control for 72 h, followed by the addition of CCK-8 reagent. The OD value of each well was measured at 450 nm using a SpectraMax M5 Microplate Reader (Molecular Devices). Sorafenib functioned as the positive control. Dose–response curves were plotted to determine IC50 based upon the average values of three parallel experiments using Prism 5.0.

acetylcholinesterase = acetylcholinesterase (Homo sapiens, UniProt P22303); assay: AChE inhibition, modified Ellman's method; format: biochemical
Sequence of acetylcholinesterase (P22303 32-614): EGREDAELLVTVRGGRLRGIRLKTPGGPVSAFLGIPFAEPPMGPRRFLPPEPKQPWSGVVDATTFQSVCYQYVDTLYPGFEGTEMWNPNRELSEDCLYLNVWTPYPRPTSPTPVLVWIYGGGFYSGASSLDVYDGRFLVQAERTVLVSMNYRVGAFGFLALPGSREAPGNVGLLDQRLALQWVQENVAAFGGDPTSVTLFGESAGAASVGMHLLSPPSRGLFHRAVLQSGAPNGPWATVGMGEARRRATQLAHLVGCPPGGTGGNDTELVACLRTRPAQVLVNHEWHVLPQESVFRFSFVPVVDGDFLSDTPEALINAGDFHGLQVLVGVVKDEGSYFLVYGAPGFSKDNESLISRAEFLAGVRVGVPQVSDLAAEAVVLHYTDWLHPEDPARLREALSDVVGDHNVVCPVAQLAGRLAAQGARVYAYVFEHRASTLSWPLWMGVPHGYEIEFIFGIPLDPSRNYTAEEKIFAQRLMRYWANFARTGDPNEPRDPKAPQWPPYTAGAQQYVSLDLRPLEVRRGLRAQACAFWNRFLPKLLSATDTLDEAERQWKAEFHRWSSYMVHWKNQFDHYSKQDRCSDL
Method: The AChE inhibition activity was measured based on the modified Ellman’s method. Tacrine was used as positive drug. The inhibition rates of AChE were calculated using Origin 8.0 software.

[2] = Cytotoxicity against HONE1, CCK-8 method; format: cell-based, human; conditions: CCK-8, OD at 450 nm, 72 h, average values of three parallel experiments
Method: as §1

For `CCCCCCCC[C@H](C)[C@@H]1CC(=O)NCC(=O)N[C@@H](C(C)C)C(=O)N[C@H](CC(C)C)C(=O)N[C@@H](C)C(=O)N[C@@H](C(C)C)C(=O)O1` [Compound 4, Scopularide I], which IC50 [1] is on record?
Its IC50 is 10.1 µM.

What about the IC50 (acetylcholinesterase) of the same compound?
The IC50 was 15.6 µM.

What about the IC50 [2] of the same compound?
The IC50 was 13 µM.
